In paper PMC10331583, “Control of fibrosis with enhanced safety via asymmetric inhibition of prolyl‐tRNA synthetase 1” (EMBO Molecular Medicine, 2023):
Several values for one entry are separate records, joined by “and”; a condition that tells them apart may be missing. Equal values may be shown once. Read-outs that look alike come from different tables or passages of the source.

Assays:
[1] = system: TNT Quick Coupled Transcription/Translation System (luciferase synthesis); type: biochemical
WI‐26 VA4 cells = experiment: Puromycin incorporation assay; type: cell-based, human; conditions: for activity at 0.003 µM: WI26VA4, 3 nM; for activity at 0.01 µM: WI26VA4, 10 nM; for activity at 0.03 µM: WI26VA4, 30 nM; for activity at 0.1 µM: WI26VA4, 100 nM; for activity at 0.3 µM: WI26VA4, 300 nM; for activity at 0.5 µM: WI26VA4, 500 nM; for activity at 1 µM: WI26VA4, 1000 nM
Experimental: After being rinsed with cold PBS twice, the cells were collected and resuspended in 200 μl of the carbonate bicarbonate buffer (Sigma Aldrich, C3041‐50CAP) with protease inhibitor. The cell lysates were obtained by sonication and centrifugation at 20,000 g for 15 min at 4°C. After protein quantification using a Pierce™ BCA Protein Assay Kit (Thermo Fisher Scientific, 23225), 400 ng of the proteins was coated to ELISA plates for 18 h at 4°C. […] The plates were rinsed with the washing buffer for three times after each antibody incubation step. […] The amount of puromycin incorporated in proteins was determined by measuring the absorbance at 450 nm (reference wavelength at 620 nm). Experimental values marked in red with strikethrough text in the Figure Source Data file were excluded from the analysis. These values were determined by considering the values of biological and technical replicates under the same condition, as well as the values at the former and later chemical concentrations.

[2] = log(inhibitor) vs. response, variable slope (four parameters), concentration in nM
[3] = Homo sapiens, read-out: Puromycin, % of control, average
[4] = Homo sapiens, read-out: Puromycin, % of control, single replicate

Cc1c(Br)cnc2c1ncn2CC(=O)C[C@H]1NCCC[C@@H]1O [DWN11761]
TNT-luciferase % of control ([1]; 20 nM, Experiment #2, replicates, 0.02 µM): 85.82 % of control and 94.33 % of control and 98.20 % of control | TNT-luciferase % of control ([1]; 20 nM, Experiment #3, replicates, 0.02 µM): 98.25 % of control and 93.99 % of control and 91.88 % of control | TNT-luciferase % of control, average ([1]; 20 nM): 98.93 % of control | TNT-luciferase % of control ([1]; 60 nM, Experiment #1, replicates, 0.06 µM): 130.33 % of control and 132.79 % of control and 131.97 % of control | TNT-luciferase % of control ([1]; 60 nM, Experiment #2, replicates, 0.06 µM): 90.46 % of control and 98.97 % of control and 95.10 % of control | TNT-luciferase % of control ([1]; 60 nM, Experiment #3, replicates, 0.06 µM): 100.65 % of control and 91.36 % of control and 86.32 % of control | TNT-luciferase % of control, average ([1]; 60 nM): 106.44 % of control | TNT-luciferase % of control ([1]; 200 nM, Experiment #1, replicates, 0.2 µM): 106.56 % of control and 109.84 % of control and 110.66 % of control | TNT-luciferase % of control ([1]; 200 nM, Experiment #2, replicates, 0.2 µM): 68.51 % of control and 71.29 % of control and 70.98 % of control | TNT-luciferase % of control ([1]; 200 nM, Experiment #3, replicates, 0.2 µM): 96.73 % of control and 90.18 % of control and 101.79 % of control | TNT-luciferase % of control, average ([1]; 200 nM): 91.84 % of control | TNT-luciferase % of control ([1]; 600 nM, Experiment #1, replicates, 0.6 µM): 44.18 % of control and 45.33 % of control and 50.74 % of control | TNT-luciferase % of control ([1]; 600 nM, Experiment #2, replicates, 0.6 µM): 46.24 % of control and 47.63 % of control and 53.81 % of control | TNT-luciferase % of control ([1]; 600 nM, Experiment #3, replicates, 0.6 µM): 54.77 % of control and 51.07 % of control and 57.11 % of control | TNT-luciferase % of control, average ([1]; 600 nM): 50.10 % of control | TNT-luciferase % of control ([1]; 2000 nM, Experiment #1, replicates, 2 µM): 2.25 % of control and 2.32 % of control and 2.42 % of control | TNT-luciferase % of control ([1]; 2000 nM, Experiment #2, replicates, 2 µM): 3.17 % of control and 3.09 % of control and 3.97 % of control | TNT-luciferase % of control ([1]; 2000 nM, Experiment #3, replicates, 2 µM): 3.31 % of control and 3.19 % of control and 3.30 % of control | TNT-luciferase % of control, average ([1]; 2000 nM): 3.00 % of control | TNT-luciferase % of control ([1]; 6000 nM, Experiment #1, replicates, 6 µM): 0.05 % of control and 0.047 % of control and 0.06 % of control | TNT-luciferase % of control ([1]; 6000 nM, Experiment #2, replicates, 6 µM): 0.15 % of control and 0.14 % of control (2×) | TNT-luciferase % of control ([1]; 6000 nM, Experiment #3, replicates, 6 µM): 0.14 % of control (2×) and 0.12 % of control | TNT-luciferase % of control, average ([1]; 6000 nM): 0.11 % of control | TNT-luciferase % of control ([1]; 20000 nM, Experiment #1, replicates, 20 µM): -0.0091 % of control and -0.014 % of control and -0.00199 % of control | TNT-luciferase % of control ([1]; 20000 nM, Experiment #2, replicates, 20 µM): 0.00206 % of control and -0.00211 % of control and -0.00412 % of control | TNT-luciferase % of control ([1]; 20000 nM, Experiment #3, replicates, 20 µM): 0.02 % of control and -0.0067 % of control and 0.00433 % of control | TNT-luciferase % of control, average ([1]; 20000 nM): -0.00128 % of control | TNT-luciferase LogIC50 (best-fit value) [1, 2]: 2.775 | IC50 ([1]; log(inhibitor) vs. response, variable slope (four parameters), unit from head concentration (nM), read-out: TNT-luciferase IC50 (best-fit value)): 595 nM | Puromycin, % of control, single replicate (WI‐26 VA4 cells; 3 nM, 0.003 µM): 104.76 % of control and 100.60 % of control and 105.06 % of control and 105.49 % of control and 105.21 % of control and 111.96 % of control and 104.24 % of control | Puromycin, % of control, single replicate (WI‐26 VA4 cells; 10 nM, 0.01 µM): 99.99 % of control and 99.81 % of control and 108.66 % of control and 104.16 % of control and 106.55 % of control and 105.60 % of control and 106.56 % of control | Puromycin, % of control, single replicate (WI‐26 VA4 cells; 30 nM, 0.03 µM): 101.89 % of control and 99.32 % of control and 110.82 % of control and 110.04 % of control and 108.90 % of control and 103.15 % of control and 106.42 % of control | Puromycin, % of control, single replicate (WI‐26 VA4 cells; 100 nM, 0.1 µM): 112.55 % of control and 117.55 % of control and 127.48 % of control and 125.28 % of control and 125.52 % of control and 127.16 % of control and 126.25 % of control | Puromycin, % of control, single replicate (WI‐26 VA4 cells; 300 nM, 0.3 µM): 109.98 % of control and 112.11 % of control and 119.25 % of control and 120.23 % of control and 124.85 % of control and 125.66 % of control and 106.56 % of control | Puromycin, % of control, single replicate (WI‐26 VA4 cells; 500 nM, 0.5 µM): 54.77 % of control and 53.35 % of control and 56.10 % of control and 56.57 % of control and 57.43 % of control and 59.14 % of control and 54.96 % of control | Puromycin, % of control, single replicate (WI‐26 VA4 cells; 1000 nM, 1 µM): 28.04 % of control and 30.25 % of control and 30.46 % of control and 30.97 % of control and 31.52 % of control and 29.73 % of control and 28.78 % of control | Puromycin, % of control, single replicate (WI‐26 VA4 cells; 3000 nM, 3 µM): 0.34 % of control and -0.19 % of control and -0.45 % of control and 0.86 % of control and 1.02 % of control and 0.90 % of control and 0.51 % of control and -0.71 % of control | Puromycin, % of control, single replicate (WI‐26 VA4 cells; 10000 nM, 10 µM): 0.48 % of control and -0.27 % of control and -0.54 % of control and 1.84 % of control and 0.67 % of control and 0.24 % of control and 0.33 % of control and 0.60 % of control | Puromycin, % of control, single replicate (WI‐26 VA4 cells; 100000 nM, 100 µM): 0.17 % of control and 0.43 % of control and -0.14 % of control and 0.04 % of control and 0.27 % of control and -0.04 % of control and 0.92 % of control and 0.65 % of control | activity at 0.003 µM (WI‐26 VA4 cells; [3]): 105% | activity at 0.003 µM (WI‐26 VA4 cells; [4]): 104% | activity at 0.01 µM (WI‐26 VA4 cells; [3]): 104% | activity at 0.01 µM (WI‐26 VA4 cells; [4]): 101% | activity at 0.03 µM (WI‐26 VA4 cells; [3]): 105% | activity at 0.03 µM (WI‐26 VA4 cells; [4]): 103% | activity at 0.1 µM (WI‐26 VA4 cells; [3]): 122% | activity at 0.1 µM (WI‐26 VA4 cells; [4]): 114% | activity at 0.3 µM (WI‐26 VA4 cells; [3]): 117% | activity at 0.3 µM (WI‐26 VA4 cells; [4]): 115% | activity at 0.5 µM (WI‐26 VA4 cells; [3]): 55.6% | activity at 0.5 µM (WI‐26 VA4 cells; [4]): 52.3% | activity at 1 µM (WI‐26 VA4 cells; [3]): 29.5% | activity at 1 µM (WI‐26 VA4 cells; [4]): 26.2% | activity at 3 µM (WI‐26 VA4 cells; Homo sapiens, WI26VA4, 3000 nM, read-out: Puromycin, % of control, average): 0.29% | activity at 10 µM (WI‐26 VA4 cells; Homo sapiens, WI26VA4, 10000 nM, read-out: Puromycin, % of control, average): 0.42% | activity at 30 µM (WI‐26 VA4 cells; Homo sapiens, WI26VA4, 30000 nM, read-out: Puromycin, % of control, average): -0.13% | activity at 100 µM (WI‐26 VA4 cells; Homo sapiens, WI26VA4, 100000 nM, read-out: Puromycin, % of control, average): 0.29% | IC50 (WI‐26 VA4 cells; Homo sapiens, WI26VA4, log(inhibitor) vs. response, variable slope (four parameters), read-out: Puromycin, IC50 (best-fit value)): 581 nM | Puromycin, HillSlope (best-fit value) (WI‐26 VA4 cells; log(inhibitor) vs. response, variable slope (four parameters)): -3.124 | Puromycin, LogIC50 (best-fit value) (WI‐26 VA4 cells; [2]): 2.764
